Data taken from patent publication US5481043A, “Phenone compounds, manufacturing method and pharmaceutical preparations containing them” (priority 1991, dated 1996).

Legend:
[1] = tested on: PAF-induced bronchial asthma; test: Asthma-protective action in guinea pigs: PAF-induced bronchial asthma (inhalation, dual-chamber body plethysmograph); type: in vivo, guinea pig; conditions: for effects on PAF-induced and allergic reactions compared with androsin (in words): PAF-induced and allergic (ovalbumin) reactions
Protocol: (§1) b) Asthma-protective action of the acetophenone compound in guinea pigs.
(§2) Male white "Pirbright" guinea pigs were sensitized to ovalbumin by means of the well-known methods. Inhalation experiments were conducted 4 to 6 weeks later.
(§3) Spontaneously breathing animals were placed in a dual-chamber body plethysmograph in which the two chambers were separated around the head of the animals by a rubber collar filled with water. Changes in volume in the two chambers were measured by means of pressure transfer systems. The degree of bronchial obstruction was determined by means of the parameter, "compressed air". This technique is ten times more sensitive than other invasive methods (Dorsch et al., Pflugers Arch., 1981, 391: 236 to 241).
(§4) Groups of 10 to 14 animals were divided into two sub-groups and either treated with the test substance or with a solution. Three or four days later the experiments were repeated with those animals which had previously been given the control being given the test substance and vice-versa (each animal was once given either the test substance or the solvent).
Ovalbumin, histamine and acetylcholine were dissolved in saline solution; PAF was first dissolved in ethanol and then in saline solution containing 0.25% of bovine serum albumin to a final concentration of 1 μg PAF per ml. Ovalbumin, PAF, histamine and acetylcholine were administered in the form of an aerosol produced by ultrasound.
The effect of the test substance on the PAF-induced hyperreactivity was studied by means of successive inhalation of histamine, PAF and histamine. One group of animals was divided into two sub-groups with both sub-groups inhaling histamine in a dose leading to moderate bronchial obstruction. One hour later, one group was given the substance to be tested and the other group was given the solvent alone. Both groups were induced later by the successive inhalation of PAF and histamine. First 1 μg of PAF and 60 minutes later the same dose of histamine as before was given. The second contact with histamine in control animals usually leads to asthmatic reactions which are three times as great as after the first contact, […]

[2] = tested on: allergic bronchial asthma (ovalbumin inhalation); test: Asthma-protective action in guinea pigs: allergic (ovalbumin-induced) bronchial asthma (inhalation, dual-chamber body plethysmograph); type: in vivo, guinea pig
Protocol: as §1, §2, §3, §4
Ovalbumin, histamine and acetylcholine were dissolved in saline solution; PAF was first dissolved in ethanol and then in saline solution containing 0.25% of bovine serum albumin to a final concentration of 1 μg PAF per ml. […]

[3] = tested on: human peripheral leukocytes; test: Inhibition of histamine release from human peripheral leukocytes; type: cell-based; conditions: for inhibition at 0.1 µg/mL / inhibition at 1 µg/mL / inhibition at 10 µg/mL / inhibition at 100 µg/mL: Homo sapiens, Leukocyte; for inhibition at 0.1 µg/mL: 0.0001 mg/ml; for inhibition at 1 µg/mL: 0.001 mg/ml; for inhibition at 10 µg/mL: 0.01 mg/ml; for inhibition at 100 µg/mL: 0.1 mg/ml
Protocol: Venous blood was withdrawn from atopic donors and the peripheral leukocytes were obtained by means of dextran sedimentation. The purified cells were preincubated with three or four different concentrations of the substance to be tested and with the solvent alone. After 10 minutes, rabbit antihuman IgE antibodies, plasma containing anaphylatoxin (C5a) according to Vallota and Muller-Eberhard, calcium ionophore or saline solution were added to the cells. 30 minutes later, the reaction was stopped and the histamine concentration was measured in the […] by means of spectrofluorometry.
The results are shown in table 1 with the inhibition of the histamine release shown in percent of the maximal release by perchloric acid, corrected by the spontaneous release without stimulation.

[4] = oral dose of 10 mg/kg body weight
[5] = A 12387 (calcium ionophore) stimulus

Structure (SMILES) | effects on PAF-induced and allergic reactions compared with androsin (in words) [1] | reduction of allergic reactions ([2]; aerosol, 0.5 mg/animal) [%] | reduction of allergic bronchial asthma in vivo [2, 4] [%] | reduction of PAF-induced reactions ([1]; aerosol, 0.5 mg/animal) [%] | reduction of PAF-induced bronchial asthma in vivo [1, 4] [%] | inhibition at 0.1 µg/mL [3, 5] [%] | inhibition at 1 µg/mL [3, 5] [%] | inhibition at 10 µg/mL [3, 5] [%] | inhibition at 100 µg/mL [3, 5] [%] | inhibition at 0.1 µg/mL ([3]; C5a stimulus) [%] | inhibition at 1 µg/mL ([3]; C5a stimulus) [%] | inhibition at 10 µg/mL ([3]; C5a stimulus) [%] | inhibition at 100 µg/mL ([3]; C5a stimulus) [%] | inhibition at 0.1 µg/mL ([3]; α-IgE stimulus) [%] | inhibition at 1 µg/mL ([3]; α-IgE stimulus) [%] | inhibition at 10 µg/mL ([3]; α-IgE stimulus) [%] | inhibition at 100 µg/mL ([3]; α-IgE stimulus) [%] | inhibition of histamine release in vitro (in words) ([3]; in vitro experiment of table 1)
COc1ccc(C(=O)CO)c(OC)c1 [2,4-dimethoxy-2-hydroxyacetophenone] | Essentially, the same effects are achieved |  |  |  |  |  |  |  |  |  |  |  |  |  |  |  |  | 
COc1cc(C(C)=O)ccc1O[C@@H]1O[C@H](CO)[C@@H](O)[C@H](O)[C@H]1O [Androsin, androsin] |  | 67 | 67 | 72 | 72 | -3.6 | -0.4 | -14.9 | -12.5 | -5.4 | -4.5 | 3.7 | -4.3 | 2.8 | 0.5 | 5.5 | 10.9 | not effective
COc1cc(C(C)=O)ccc1O [apocynin] | Essentially, the same effects are achieved |  |  |  |  |  |  |  |  |  |  |  |  |  |  |  |  | 
